Measured values reported in patent publication US11013714B2, “Use of homoeriodictyol (HED) for reducing the gastric acid secretion-stimulating effect of n-acetyl-4-aminophenol (Paracetamol)” (SYMRISE AG, priority 2016, dated 2021).
Values joined by “and” are separate entries in the source; they are usually repeats but may differ in a detail not shown here. Equal values may be shown once. Read-outs that look alike come from different tables or passages of the source. Blank lines part the entries; values can stand above or below the molecule they belong to.

Experiments:
[1] = system: HGT-1 cells; details: cited from earlier work
[2] = system: HGT-1 cells; test: Proton secretion in HGT-1 cells (intracellular pH, SNARF-1-AM dye); type: cell-based, human
Procedure: Human parietal cells (human gastric tumour cell line, HGT-1) were used as cellular model. These were provided by Dr. C. Laboisse (Laboratory of Pathological Anatomy, Nantes, France). The cells are cultured at standard conditions at 37° C., 5% CO2 in DMEM (Dulbecco's Modified […] Medium) with 4 g/L glucose, 10% FBS, 2% L-glutamine and 1% Penicillin/Streptomycin. For measuring the intracellular proton concentration, the cells are treated with Trypsin/EDTA, the cellular viability was determined with Trypan blue staining and 100 000 cells/well were seeded in black 96-well plates. […] The cells in the 96-well plates are washed once with Krebs-Hepes-buffer (KRHP) and incubated with the dye in a concentration of 3 μM dissolved in KRHP for 30 min at 37° C. and 5% CO2. Afterwards, the cells are washed twice with KRHP and substances stimulating gastric acid secretion, as for example 3 mM caffeine, 0.3 mM Theobromine or 3 mM Paracetamol alone or in combination with substances for reducing the gastric acid stimulating effect of the above substances, for example Homoeriodictyol (HED), in various concentrations in phenol red free DMEM in a volume of 100 μL were added; as a further control, the substances stimulating gastric acid secretion as named above were tested alone. Homoeriodictyol is dissolved in double distilled water. The final concentration of solvent, which is added to the cells, is at most 1%. The fluorescent dye is excited at the wave length of 488 nm and the emission is measured at 580 nm and 640 nm. […] For the calibration curve, the cells are treated with a potassium buffer in different pH values of from 7.2 to 8.2 and 2 μM Nigericin. Nigericin equilibrates the intracellular and extracellular pH value so that the intracellular pH value can be defined. The intracellular H^+-concentration is obtained from the intracellular pH value. The intracellular proton index (IPX) is calculated by log 2 transformation of the ratio of treated cells and untreated cells (control) ([…].; Somoza, M. M.; Hofmann, T.; Somoza, V., Mol Nutr Food Res 2012, 56, 325-335; Rubach, M.; Lang, R.; Hofmann, T.; Somoza, V., Ann N Y Acad Sci 2008, 1126, 310-4; […].; Hofmann, T.; Somoza, V., J Agric Food Chem 2010, 58, 4153-61; Weiss, […].; Blumberg, S.; Frank, O.; Hofmann, T.; Somoza, V., J Agric Food Chem 2010, 58, 1976-85; Liszt, K. I.; Walker, J.; Somoza, V., J Agric Food Chem 2012, 60, 7022-7030; Walker, J.; Hell, J.; Liszt, […].; Hofmann, T.; Somoza, V., J Agric Food Chem 2012, 60, 1405-12). The number of indicated replicates relates to technical replicates (tr) or the number of total replicates (n), which results from the number of technical replicates multiplied with the number of biological replicates. […] Statistics: one-way Anova with Holm-Sidak post-hoc test. Significant differences (p<0.05) are indicated by letters.

[3] = biological target: T1, TAS2R43 (Homo sapiens, UniProt P59537); test: Own experiments on bitter receptor TAS2R43
T1 sequence (P59537 1-309): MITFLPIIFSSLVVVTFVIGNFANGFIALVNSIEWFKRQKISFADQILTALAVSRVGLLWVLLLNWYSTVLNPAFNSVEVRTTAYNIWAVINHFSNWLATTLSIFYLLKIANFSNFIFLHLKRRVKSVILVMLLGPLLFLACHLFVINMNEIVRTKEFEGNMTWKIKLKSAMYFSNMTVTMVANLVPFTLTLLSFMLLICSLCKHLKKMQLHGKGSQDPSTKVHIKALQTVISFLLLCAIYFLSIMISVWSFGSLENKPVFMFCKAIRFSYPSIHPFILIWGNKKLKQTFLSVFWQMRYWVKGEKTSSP

[4] = biological target: T2, TAS2R39 (Homo sapiens, UniProt P59534); details: Roland et al., J. Agric. Food Chem. 2013; cited from earlier work
T2 sequence (P59534 1-338): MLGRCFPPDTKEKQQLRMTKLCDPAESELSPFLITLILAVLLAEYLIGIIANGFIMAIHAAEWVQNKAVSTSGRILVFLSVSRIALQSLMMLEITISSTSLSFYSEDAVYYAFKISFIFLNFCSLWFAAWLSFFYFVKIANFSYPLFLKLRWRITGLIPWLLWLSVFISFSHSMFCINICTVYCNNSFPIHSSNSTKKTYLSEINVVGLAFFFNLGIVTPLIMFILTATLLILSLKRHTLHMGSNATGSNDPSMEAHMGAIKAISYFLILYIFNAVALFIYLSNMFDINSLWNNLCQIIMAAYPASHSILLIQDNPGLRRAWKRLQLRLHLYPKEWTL

SMILES: Cn1c(=O)c2c(ncn2C)n(C)c1=O [Caffeine, caffeine, reference compound]
- percentage increase (positive values) or decrease (negative values) of the proton secretion, mean ([1]; 3 mM caffeine alone (DMEM), 10 minutes stimulation): 54.80%
- percentage increase (positive values) or decrease (negative values) of the proton secretion, mean ([1]; 3 mM caffeine alone (DMEM), 10 minutes stimulation, listed as caffeine): 55%

- effect at receptor type TAS2R43 [3]: antagonist
SMILES: COc1cc(C2CC(=O)c3c(O)cc(O)cc3O2)ccc1O (centres unmarked) [HED, 3′-Methoxy-4′,5,7-trihydroxy flavanone]
- percentage increase (positive values) or decrease (negative values) of the proton secretion, mean ([2]; 3 mM Paracetamol + 0.003 mM HED, 10 minutes): 10.96%
- percentage increase (positive values) or decrease (negative values) of the proton secretion, mean ([2]; 3 mM Paracetamol + 0.03 mM HED, 10 minutes): 7% and 6.57%
- percentage increase (positive values) or decrease (negative values) of the proton secretion, mean ([2]; 3 mM Paracetamol + 0.3 mM HED, 10 minutes): −46.24%
- effect on constitutive acid secretion ([2]; 3 mM Paracetamol, addition of 0.3 mM HED, compared to control without active substances): significant reduction of the constitutive acid secretion
- proton secretion induced by 3 mM Paracetamol ([2]; addition of 0.003 or 0.03 mM HED): reduced
- proton secretion increased by ([2]; simultaneous incubation with 3 mM Paracetamol and 0.003 mM HED): 11%
- proton secretion reduced by ([2]; simultaneous incubation with 3 mM Paracetamol and 0.3 mM HED): 46%
- percentage increase (positive values) or decrease (negative values) of the proton secretion, mean ([1]; 0.3 mM Theobromine + 0.003 mM HED, 10 minutes): 21.56%
- percentage increase (positive values) or decrease (negative values) of the proton secretion, mean ([1]; 0.3 mM Theobromine + 0.03 mM HED, 10 minutes): 14% and 13.79%
- percentage increase (positive values) or decrease (negative values) of the proton secretion, mean ([1]; 0.3 mM Theobromine + 0.3 mM HED, 10 minutes): −16.92%
- percentage increase (positive values) or decrease (negative values) of the proton secretion, mean ([1]; 3 mM caffeine + 0.03 mM HED, 10 minutes): 38%
- percentage increase (positive values) or decrease (negative values) of the proton secretion, mean ([1]; 3 mM caffeine + 0.3 mM HED, 10 minutes): 20% and 20.20%
- proton secretion decreased by ([1]; simultaneous incubation with 0.3 mM Theobromine and 0.3 mM HED): 17%
- effect on the proton secretion in HGT-1-cells ([1]; sole HED, without gastric acid secretion-stimulating substances (WO 2014111436 A1)): no significant effect
- effect at receptor type TAS2R39 [4]: agonist

SMILES: CC(=O)Nc1ccc(O)cc1 [Paracetamol, N-(4-Hydroxyphenyl)acetamide]
- percentage increase (positive values) or decrease (negative values) of the proton secretion, mean ([2]; 3 mM Paracetamol alone (DMEM), 10 minutes stimulation): 24% and 24.10%

SMILES: Cn1cnc2c1c(=O)[nH]c(=O)n2C [Theobromine, reference compound]
- percentage increase (positive values) or decrease (negative values) of the proton secretion, mean ([1]; 0.3 mM Theobromine alone (DMEM), 10 minutes stimulation): 21% and 20.92%
